System: comedones
Settings: topical
Method: As an example, the comedolytic power of all-trans 2-retinoyl phosphatidinyl ethanol was tested following the protocol below:
The animal chosen for the test of comedolytic activity was the Hairless Rhino (hr rh) mouse of female sex, this choice being due to the fact that the skin of such an animal has a high density of comedones having a large diameter and narrow orifice. The use of comedolytic agents on the skin of the animal provokes the opening of the orifice of the comedones, the release of the horny material and the sebum that it contains.
Two groups comprising six mice each which were six-week's old at the start of the test and weighing on average 18 grams each were used. The first group were mice treated with distilled water (negative control group) and the second group were mice treated with the product under study. The treatment consisted of a topical use of the product studied on the interscapular area at a dose of 0.02 ml, 5 days out of 7, for 21 days. The animals were sacrificed at the end of three weeks of treatment, 24 hours after the last application.
Biopsies of the skin were then taken from the treated areas of the animals and from these biopsies, sections were prepared for a standard morphometric study by methods known to a person skilled in the art. The following parameters were measured: diameter of the opening of the comedon at the surface i.e d […]
comedonian profile i.e R = d/D
The ratio R=d/D allowed the action of the comedolytic agents to be quantified.
The percentage of inhibition of the comedones was calculated for the product under study relative to the negative control, i.e. the following ratio: [formula]

Q: What does the source list for “all-trans 2-retinoyl phosphatidinyl ethanol”?
A: % inhibition of the comedones relative to the negative control (0.1% in solution in ethylenediglycol, interscapular, 0.02 ml, 5 days out of 7, for 21 days): 14.1%; comedonian profile R = d/D (diameter of the opening of the comedon at the surface / diameter of the comedon) (0.1% in solution in ethylenediglycol, interscapular, 0.02 ml, 5 days out of 7, for 21 days, negative control (distilled water) R = 0.78): 0.89; comedolytic activity (in words) (at a dose of 0.1%, 21 days): good comedolytic activity

Source: patent publication US5985292A, “Active phospholipids as a vector for active molecules” (Roussel-UCLAF, priority 1993, dated 1999)
